# Results: patent publication US20260184691A1, “INHIBITORS AND DEGRADERS OF PIP4K PROTEIN” (Larkspur Biosciences, Inc., priority 2022, published 2026)
# Target: T1, endogenous PIP4K2C C-terminally tagged with HiBiT peptide in MOLT-4 cells (Homo sapiens, UniProt Q8TBX8)
# T1 construct: to C-terminally tag endogenous PIP4K2C with HiBiT peptide; host or cells: MOLT-4 (CRISPR-Cas9 knock-in clone)
# T1 sequence (Q8TBX8 1-421): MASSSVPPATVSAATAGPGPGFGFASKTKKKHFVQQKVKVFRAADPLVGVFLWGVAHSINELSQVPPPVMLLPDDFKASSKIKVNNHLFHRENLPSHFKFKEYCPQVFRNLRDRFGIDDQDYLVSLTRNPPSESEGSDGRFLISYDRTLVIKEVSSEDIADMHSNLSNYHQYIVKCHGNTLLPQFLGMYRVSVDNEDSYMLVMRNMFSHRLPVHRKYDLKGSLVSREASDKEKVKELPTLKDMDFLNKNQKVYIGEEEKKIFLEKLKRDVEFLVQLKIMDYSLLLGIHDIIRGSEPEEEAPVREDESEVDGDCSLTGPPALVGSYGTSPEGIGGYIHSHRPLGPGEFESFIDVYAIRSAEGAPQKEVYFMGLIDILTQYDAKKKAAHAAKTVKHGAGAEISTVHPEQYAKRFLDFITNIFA
# Assay: HiBiT PIP4K2C degradation assay in MOLT-4 cells
# Assay type: cell-based
# Details: 24 hours, 10-point dose response, top concentration 10 micromolar, read-out: HiBIT-degradation MOLT4 PIP4k2C 24 hours DC50
# In short: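 Cells bearing C-terminal HiBiT knock-in were exposed to a 10-point, 3-fold dilution series (top 10 micromolar, duplicate) for 24 h at 37C, 5% CO2. Remaining tagged protein read by lytic HiBiT luminescence; DC50 from Hill-equation fit.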
row,SMILES,DC50 [µM]
1,"O=C1CCC(Nc2ccc(C3CCN(CC(=O)N4CCC5(CC4)CCN(c4cncc(Nc6ncc(Cl)c(-c7cccc(C8CCCCC8)c7)n6)c4)C5=O)CC3)cc2)C(=O)N1 (stereo not drawn) [Compound 190, 3-((4-(1-(2-(2-(5-((5-chloro-4-(3-cyclohexylphenyl)pyrimidin-2-yl)amino)pyridin-3-yl)-1-oxo-2,8-diazaspiro[4.5]decan-8-yl)-2-oxoethyl)piperidin-4-yl)phenyl)amino)piperidine-2,6-dione]",< 0.5
2,"O=C1CCC(Nc2ccc(N3CCC(CC(=O)N4CCC5(CC4)CCN(c4cncc(Nc6ncc(Cl)c(N7CCC[C@H](C(F)(F)F)C7)n6)c4)C5=O)CC3)cc2)C(=O)N1 (stereo partly drawn) [Compound 178, 3-((4-(4-(2-(2-(5-((5-chloro-4-((S)-3-(trifluoromethyl)piperidin-1-yl)pyrimidin-2-yl)amino)pyridin-3-yl)-1-oxo-2,8-diazaspiro[4.5]decan-8-yl)-2-oxoethyl)piperidin-1-yl)phenyl)amino)piperidine-2,6-dione]",< 0.5
3,"O=C1CCC(Nc2ccc(C3CCN(CC(=O)N4CCC5(CC4)CCN(c4cncc(Nc6ncc(Cl)c(-c7cccc(N8CCC8)c7)n6)c4)C5=O)CC3)cc2)C(=O)N1 (stereo not drawn) [Compound 188, 3-((4-(1-(2-(2-(5-((4-(3-(azetidin-1-yl)phenyl)-5-chloropyrimidin-2-yl)amino)pyridin-3-yl)-1-oxo-2,8-diazaspiro[4.5]decan-8-yl)-2-oxoethyl)piperidin-4-yl)phenyl)amino)piperidine-2,6-dione]",< 0.5
4,"CC(=O)N1CCCC(n2cc(-c3nc(Nc4cncc(N5CCC6(CCN(C(=O)CN7CCC(c8ccc(NC9CCC(=O)NC9=O)cc8)CC7)CC6)C5=O)c4)ncc3Cl)cn2)C1 (stereo not drawn) [Compound 197, 3-((4-(1-(2-(2-(5-((4-(1-(1-acetylpiperidin-3-yl)-1H-pyrazol-4-yl)-5-chloropyrimidin-2-yl)amino)pyridin-3-yl)-1-oxo-2,8-diazaspiro[4.5]decan-8-yl)-2-oxoethyl)piperidin-4-yl)phenyl)amino)piperidine-2,6-dione]",< 0.5
5,"O=C1CCC(Nc2ccc(C3CCN(CC(=O)N4CCC5(CC4)CCN(c4cncc(Nc6ncc(Cl)c(-c7cccc(C8CCCC8)c7)n6)c4)C5=O)CC3)cc2)C(=O)N1 (stereo not drawn) [Compound 192, 3-((4-(1-(2-(2-(5-((5-chloro-4-(3-cyclopentylphenyl)pyrimidin-2-yl)amino)pyridin-3-yl)-1-oxo-2,8-diazaspiro[4.5]decan-8-yl)-2-oxoethyl)piperidin-4-yl)phenyl)amino)piperidine-2,6-dione]",< 0.5
6,"O=C1CCC(N2Cc3cc(OCCCCCCCCCC(=O)N4CCC5(CC4)CCN(c4cncc(Nc6ncc(Cl)c(-c7cccc(-c8ccccc8)c7)n6)c4)C5=O)ccc3C2=O)C(=O)N1 (stereo not drawn) [Compound 61, 3-(5-((10-(2-(5-((4-([1,1′-biphenyl]-3-yl)-5-chloropyrimidin-2-yl)amino)pyridin-3-yl)-1-oxo-2,8-diazaspiro[4.5]decan-8-yl)-10-oxodecyl)oxy)-1-oxoisoindolin-2-yl)piperidine-2,6-dione]",< 0.5
7,"O=C1CCC(Nc2ccc(C3CCN(C(=O)CN4CCC(C(=O)Nc5cncc(Nc6ncc(Cl)c(-c7cccc(C8CC8)c7)n6)c5)CC4)CC3)cc2)C(=O)N1 (stereo not drawn) [Compound 202, N-(5-((5-chloro-4-(3-cyclopropylphenyl)pyrimidin-2-yl)amino)pyridin-3-yl)-1-(2-(4-(4-((2,6-dioxopiperidin-3-yl)amino)phenyl)piperidin-1-yl)-2-oxoethyl)piperidine-4-carboxamide]",< 0.5
8,"O=C1CCC(Nc2ccc(N3CCC(CC(=O)N4CCC5(CC4)CCN(c4cncc(Nc6ncc(Cl)c(-c7cccc(N8CCCC8)c7)n6)c4)C5=O)CC3)cc2)C(=O)N1 (stereo not drawn) [Compound 184, 3-((4-(4-(2-(2-(5-((5-chloro-4-(3-(pyrrolidin-1-yl)phenyl)pyrimidin-2-yl)amino)pyridin-3-yl)-1-oxo-2,8-diazaspiro[4.5]decan-8-yl)-2-oxoethyl)piperidin-1-yl)phenyl)amino)piperidine-2,6-dione]",< 0.5

# The next lines start with the values.
row,DC50 [µM],SMILES
1,0.5 to 1,"O=C1CCC(N2C(=O)c3cccc(OCCCCCCCCC(=O)N4CCC5(CC4)CCN(c4cncc(Nc6ncc(Cl)c(-c7cccc(-c8ccccc8)c7)n6)c4)C5=O)c3C2=O)C(=O)N1 (stereo not drawn) [Compound 78, 4-((9-(2-(5-((4-([1,1′-biphenyl]-3-yl)-5-chloropyrimidin-2-yl)amino)pyridin-3-yl)-1-oxo-2,8-diazaspiro[4.5]decan-8-yl)-9-oxononyl)oxy)-2-(2,6-dioxopiperidin-3-yl)isoindoline-1,3-dione]"
2,< 0.5,"O=C1CCC(N2C(=O)c3cccc(OCCCN4CCN(CCCCCC(=O)Nc5cncc(Nc6ncc(Cl)c(-c7cccc(-c8ccccc8)c7)n6)c5)CC4)c3C2=O)C(=O)N1 (stereo not drawn) [Compound 68, N-(5-((4-([1,1′-biphenyl]-3-yl)-5-chloropyrimidin-2-yl)amino)pyridin-3-yl)-6-(4-(3-((2-(2,6-dioxopiperidin-3-yl)-1,3-dioxoisoindolin-4-yl)oxy)propyl)piperazin-1-yl)hexanamide]"
3,< 0.5,"O=C1CCC(N2Cc3cc(OCCCCCCCN4CCC5(CC4)CCN(c4cncc(Nc6ncc(Cl)c(-c7cccc(-c8ccccc8)c7)n6)c4)C5=O)ccc3C2=O)C(=O)N1 (stereo not drawn) [Compound 54, 3-(5-((7-(2-(5-((4-([1,1′-biphenyl]-3-yl)-5-chloropyrimidin-2-yl)amino)pyridin-3-yl)-1-oxo-2,8-diazaspiro[4.5]decan-8-yl)heptyl)oxy)-1-oxoisoindolin-2-yl)piperidine-2,6-dione]"
4,< 0.5,"O=C(CCCOc1cccc2c1C(=O)N(C1CCC(=O)NC1=O)C2=O)NCCCCCCCC(=O)Nc1cncc(Nc2ncc(Cl)c(-c3cccc(-c4ccccc4)c3)n2)c1 (stereo not drawn) [Compound 81, N-(5-((4-([1,1′-biphenyl]-3-yl)-5-chloropyrimidin-2-yl)amino)pyridin-3-yl)-8-(4-((2-(2,6-dioxopiperidin-3-yl)-1,3-dioxoisoindolin-4-yl)oxy)butanamido)octanamide]"
5,< 0.5,"O=C1CCC(N2C(=O)c3cccc(OCCCN4CCN(CCCCCCC(=O)Nc5cncc(Nc6ncc(Cl)c(-c7cccc(-c8ccccc8)c7)n6)c5)CC4)c3C2=O)C(=O)N1 (stereo not drawn) [Compound 58, N-(5-((4-([1,1′-biphenyl]-3-yl)-5-chloropyrimidin-2-yl)amino)pyridin-3-yl)-7-(4-(3-((2-(2,6-dioxopiperidin-3-yl)-1,3-dioxoisoindolin-4-yl)oxy)propyl)piperazin-1-yl)heptanamide]"
6,< 0.5,"O=C1CCC(N2Cc3cc(OCCCCCCC(=O)N4CCC5(CC4)CC(=O)N(c4cncc(Nc6ncc(Cl)c(-c7cccc(-c8ccccc8)c7)n6)c4)C5)ccc3C2=O)C(=O)N1 (stereo not drawn) [Compound 166, 3-(5-((7-(2-(5-((4-([1,1′-biphenyl]-3-yl)-5-chloropyrimidin-2-yl)amino)pyridin-3-yl)-3-oxo-2,8-diazaspiro[4.5]decan-8-yl)-7-oxoheptyl)oxy)-1-oxoisoindolin-2-yl)piperidine-2,6-dione]"
7,< 0.5,"O=C1CCC(N2C(=O)c3cccc(OCCCCCCC(=O)N4CCC5(CC4)CCN(c4cncc(Nc6ncc(Cl)c(-c7cccc(-c8ccccc8)c7)n6)c4)C5=O)c3C2=O)C(=O)N1 (stereo not drawn) [Compound 80, 4-((7-(2-(5-((4-([1,1′-biphenyl]-3-yl)-5-chloropyrimidin-2-yl)amino)pyridin-3-yl)-1-oxo-2,8-diazaspiro[4.5]decan-8-yl)-7-oxoheptyl)oxy)-2-(2,6-dioxopiperidin-3-yl)isoindoline-1,3-dione]"
